# Where a name gives a salt, the structure may show the parent alone.
# System: collagen 1
# Assay: WI-38 collagen 1 inhibition assay (anti-Collagen I immunofluorescence);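 note: minus sign means inactive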
# Format: cell-based
# Details: cellular EC50, WI-38 human lung fibroblasts, values are LogEC50 classes
row,Compound,COL1 Efficacy (LogEC50)
1,"c1cc(N2CCN(Cc3ccc4cc[nH]c4c3)CC2)ccn1 [compound 265, 6-[[4-(4-pyridyl)piperazin-1-yl]methyl]-1H-indole]",++ (++: −5 to −6)
2,"Clc1ccc2cc(CN3CCN(c4ccncc4)CC3)[nH]c2c1 [compound 240, 6-chloro-2-[[4-(4-pyridyl)piperazin-1-yl]methyl]-1H-indole]",+ (+: >−5)
3,"Cc1ncnc(N2CCN(Cc3nc4ccncc4o3)CC2)c1C [compound 330, 2-((4-(5,6-dimethylpyrimidin-4-yl)piperazin-1-yl)methyl)oxazolo[5,4-c]pyridine]",++ (++: −5 to −6)
4,"Cc1ncnc(N2CCN(Cc3nc4ccc(C(F)F)cc4o3)CC2)c1C [compound 304, 6-(difluoromethyl)-2-((4-(5,6-dimethylpyrimidin-4-yl)piperazin-1-yl)methyl)benzo[d]oxazole]",+++ (+++: <−6)
5,"c1ccc2[nH]c(CN3CCN(c4ccncc4)CC3)cc2c1 [Compound 212, 2-((4-(pyridin-4-yl)piperazin-1-yl)methyl)-1H-indole]",+++ (+++: <−6)
6,"Cc1ncnc(N2CCN(Cc3nc4c(C(F)(F)F)cccc4o3)CC2)c1C [compound 295, 2-((4-(5,6-dimethylpyrimidin-4-yl)piperazin-1-yl)methyl)-4-(trifluoromethyl)benzo[d]oxazole]",+++ (+++: <−6)
7,"COc1ccc2[nH]c(CN3CCN(c4ccncc4)CC3)cc2c1 [compound 223, 5-methoxy-2-[[4-(4-pyridyl)piperazin-1-yl]methyl]-1H-indole]",−
8,"COCCOCc1cncnc1N1CCN(Cc2cc3ccccc3[nH]2)CC1 [compound 287, 2-((4-(5-((2-methoxyethoxy)methyl)pyrimidin-4-yl)piperazin-1-yl)methyl)-1H-indole]",−
9,"Cc1ncnc(N2CCN(Cc3nc4ccccc4o3)CC2)c1Cl [compound 310, 2-((4-(5-chloro-6-methylpyrimidin-4-yl)piperazin-1-yl)methyl)benzo[d]oxazole]",++ (++: −5 to −6)
10,"c1cc(CN2CCN(c3ccncc3)CC2)c2[nH]ccc2c1 [compound 262, 7-[[4-(4-pyridyl)piperazin-1-yl]methyl]-1H-indole]",−
11,"Cc1cncnc1N1CCN(Cc2cc3ccccc3[nH]2)CC1 [compound 266, 2-[[4-(5-methylpyrimidin-4-yl)piperazin-1-yl]methyl]-1H-indole formate]",+ (+: >−5)
12,CCc1cncnc1N1CCN(Cc2nc3ccc(C(F)(F)F)cc3[nH]2)CC1 [compound 214],+++ (+++: <−6)
13,"Cc1ncnc(N2CCN(Cc3nc4ccc(F)cc4o3)CC2)c1C#N [compound 329, 4-(4-((6-fluorobenzo[d]oxazol-2-yl)methyl)piperazin-1-yl)-6-methylpyrimidine-5-carbonitrile]",++ (++: −5 to −6)
14,"c1cncc(-c2ccc3[nH]c(CN4CCN(c5ccncc5)CC4)cc3c2)c1 [compound 220, 5-(3-pyridyl)-2-[[4-(4-pyridyl)piperazin-1-yl]methyl]-1H-indole]",−
15,"Cc1cc(N2CCN(Cc3cc4ccccc4[nH]3)CC2)ccn1 [Compound 221, 2-[[4-(2-methyl-4-pyridyl)piperazin-1-yl]methyl]-1H-indole]",−
16,"O=C(Nc1ccccc1)c1ccc2[nH]c(CN3CCN(c4ccncc4)CC3)cc2c1 [compound 250, N-phenyl-2-[[4-(4-pyridyl)piperazin-1-yl]methyl]-1H-indole-5-carboxamide]",+ (+: >−5)
17,"O=C(c1cc2ccccc2[nH]1)N1CCN(c2ccncc2)CC1 [compound 244, (1H-indol-2-yl)(4-(pyridin-4-yl)piperazin-1-yl)methanone]",+ (+: >−5)
18,"Cc1ncnc(N2CCN(Cc3nc4cccc(C(F)(F)F)c4o3)CC2)c1C [compound 307, 2-((4-(5,6-dimethylpyrimidin-4-yl)piperazin-1-yl)methyl)-7-(trifluoromethyl)benzo[d]oxazole]",++ (++: −5 to −6)
19,"Clc1cncnc1N1CCN(Cc2nc3ccccc3o2)CC1 [compound 314, 2-((4-(5-chloropyrimidin-4-yl)piperazin-1-yl)methyl)benzo[d]oxazole]",++ (++: −5 to −6)
20,"Clc1cccc2cc(CN3CCN(c4ccncc4)CC3)[nH]c12 [compound 247, 7-chloro-2-[[4-(4-pyridyl)piperazin-1-yl]methyl]-1H-indole]",+++ (+++: <−6)
21,"Brc1ccc2cc(CN3CCN(c4ccncc4)CC3)[nH]c2c1 [compound 224, 6-bromo-2-[[4-(4-pyridyl)piperazin-1-yl]methyl]-1H-indole]",+ (+: >−5)
22,"Cc1cnccc1N1CCN(Cc2cc3ccccc3[nH]2)CC1 [Compound 222, 2-[[4-(3-methyl-4-pyridyl)piperazin-1-yl]methyl]-1H-indole]",++ (++: −5 to −6)
23,"c1ccc2[nH]c(CN3CCN(c4ccnnc4)CC3)cc2c1 [compound 279, 2-[(4-pyridazin-4-ylpiperazin-1-yl)methyl]-1H-indole formate]",−
24,"Cc1ncnc(N2CCN(Cc3nc4ccc(Cl)cc4o3)CC2)c1C [compound 302, 6-chloro-2-((4-(5,6-dimethylpyrimidin-4-yl)piperazin-1-yl)methyl)benzo[d]oxazole]",+++ (+++: <−6)
25,"CC(=O)Nc1ccc2[nH]c(CN3CCN(c4ccncc4)CC3)cc2c1 [compound 258, N-[2-[[4-(4-pyridyl)piperazin-1-yl]methyl]-1H-indol-5-yl]acetamide]",++ (++: −5 to −6)
26,"Cc1ncnc(N2CCN(Cc3cc4ccccc4[nH]3)CC2)c1C [Compound 202, 2-((4-(5,6-dimethylpyrimidin-4-yl)piperazin-1-yl)methyl)-1H-indole]",+++ (+++: <−6)
27,"FC(F)(F)c1ccc2nc(CN3CCN(c4ccncc4)CC3)[nH]c2c1 [Compound 209, 2-((4-(pyridin-4-yl)piperazin-1-yl)methyl)-6-(trifluoromethyl)-1H-benzo[d]imidazole]",+ (+: >−5)
28,"c1cncc(N2CCN(Cc3cc4ccccc4[nH]3)CC2)c1 [Compound 217, 2-[[4-(3-pyridyl)piperazin-1-yl]methyl]-1H-indole]",+ (+: >−5)
29,"CCc1cncnc1N1CCN(Cc2nc3ccc(COCCOC)cc3[nH]2)CC1 [compound 289, 2-((4-(5-ethylpyrimidin-4-yl)piperazin-1-yl)methyl)-6-((2-methoxyethoxy)methyl)-1H-benzo[d]imidazole]",+++ (+++: <−6)
30,"c1ccc2[nH]c(CN3CCN(c4cncnc4)CC3)cc2c1 [compound 278, 2-[(4-pyrimidin-5-ylpiperazin-1-yl)methyl]-1H-indole formate]",−

# From patent US20230150980A1, “COLLAGEN 1 TRANSLATION INHIBITORS AND METHODS OF USE THEREOF” (Anima Biotech Inc., priority 2020, published 2023)
